Key:
Type in all cases: cell-based
COLO205 (colon) = assay: Inhibition of cell proliferation, CellTiter-Glo, COLO205; conditions: Homo sapiens, COLO 205, 72 h
Procedure, shortened: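 Exponentially growing COLO205 cells in medium with 10% FBS were plated below 2000 cells/well at 37 °C, 5% CO2. Untreated wells served as controls.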

[1] = test system: NCI-H929 (multiple myeloma); assay: Inhibition of cell proliferation, CellTiter-Glo, NCI-H929; conditions: Homo sapiens, 72 h
Procedure, shortened: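 Cells were grown in medium with 10% FBS at 37° C, 5% CO2. Cell number was read as CellTiter-Glo luminescence (cellular ATP), with untreated wells as control.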

[2] = biological target: T1, human IGF-1R (NIH-3T3 cells over expressing human IGF-1R) (Homo sapiens, UniProt P08069); assay: IGF-1R cellular autophosphorylation (DELFIA); conditions: IGF-1 stimulated
T1 construct: expressed in transfected cells; host or cells: NIH-3T3 (mouse fibroblasts)
Procedure, shortened: (§1)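 Receptor-overexpressing NIH-3T3, 10% FBS, 37 °C; cpd 30 uM–1.5 nM × 2 h; stim IGF-1 30 ng/mL (IGF-1R) or insulin 3 ug/mL (IR), 15 min; lysate DELFIA, Eu anti-pTyr; % of stimulated signal.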

[3] = biological target: T2, IR (NIH-3T3 cells over expressing human IGF-1R or IR) (Homo sapiens, UniProt P06213); assay: IR cellular autophosphorylation (DELFIA); conditions: NIH-3T3 cells over expressing IR, insulin stimulated
T2 construct: expressed in transfected cells; host or cells: NIH-3T3 (mouse fibroblasts)
Procedure, shortened: as §1

T2 sequence (P06213 28-1382): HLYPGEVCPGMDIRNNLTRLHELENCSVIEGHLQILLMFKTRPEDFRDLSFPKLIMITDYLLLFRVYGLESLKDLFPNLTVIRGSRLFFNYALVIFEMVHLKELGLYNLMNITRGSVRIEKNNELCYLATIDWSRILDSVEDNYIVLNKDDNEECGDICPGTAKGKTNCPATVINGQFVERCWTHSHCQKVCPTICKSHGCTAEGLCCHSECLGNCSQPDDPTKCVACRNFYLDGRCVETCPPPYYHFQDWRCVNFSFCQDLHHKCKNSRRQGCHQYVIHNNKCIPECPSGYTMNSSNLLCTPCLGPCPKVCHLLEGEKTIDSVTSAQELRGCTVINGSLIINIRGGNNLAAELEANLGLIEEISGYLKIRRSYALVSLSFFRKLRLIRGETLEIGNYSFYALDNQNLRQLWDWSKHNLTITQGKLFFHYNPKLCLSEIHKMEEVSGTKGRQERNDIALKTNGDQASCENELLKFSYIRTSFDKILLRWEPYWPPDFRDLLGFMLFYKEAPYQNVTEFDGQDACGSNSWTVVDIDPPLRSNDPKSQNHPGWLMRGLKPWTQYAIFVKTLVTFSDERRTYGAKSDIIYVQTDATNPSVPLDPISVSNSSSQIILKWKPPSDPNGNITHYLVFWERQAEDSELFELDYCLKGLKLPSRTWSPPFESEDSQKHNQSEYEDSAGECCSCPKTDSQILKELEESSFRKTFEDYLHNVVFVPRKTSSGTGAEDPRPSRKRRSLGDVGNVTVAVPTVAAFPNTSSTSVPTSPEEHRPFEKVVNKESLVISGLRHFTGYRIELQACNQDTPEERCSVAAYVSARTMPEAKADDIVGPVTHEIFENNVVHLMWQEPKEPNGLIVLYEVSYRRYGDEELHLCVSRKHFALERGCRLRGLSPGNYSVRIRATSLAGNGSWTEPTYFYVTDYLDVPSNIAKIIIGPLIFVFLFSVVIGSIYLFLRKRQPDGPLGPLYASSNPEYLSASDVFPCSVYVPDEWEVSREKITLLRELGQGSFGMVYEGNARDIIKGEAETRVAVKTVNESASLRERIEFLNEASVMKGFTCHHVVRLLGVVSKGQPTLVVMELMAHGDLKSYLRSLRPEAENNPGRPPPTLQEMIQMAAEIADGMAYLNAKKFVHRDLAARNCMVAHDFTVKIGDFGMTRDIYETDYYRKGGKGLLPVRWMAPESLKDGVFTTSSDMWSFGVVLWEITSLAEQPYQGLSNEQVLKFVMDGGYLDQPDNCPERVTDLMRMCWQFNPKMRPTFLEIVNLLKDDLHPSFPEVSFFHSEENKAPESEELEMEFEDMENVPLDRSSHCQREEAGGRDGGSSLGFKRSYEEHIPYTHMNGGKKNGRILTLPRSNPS
T1 sequence (P08069 31-1367): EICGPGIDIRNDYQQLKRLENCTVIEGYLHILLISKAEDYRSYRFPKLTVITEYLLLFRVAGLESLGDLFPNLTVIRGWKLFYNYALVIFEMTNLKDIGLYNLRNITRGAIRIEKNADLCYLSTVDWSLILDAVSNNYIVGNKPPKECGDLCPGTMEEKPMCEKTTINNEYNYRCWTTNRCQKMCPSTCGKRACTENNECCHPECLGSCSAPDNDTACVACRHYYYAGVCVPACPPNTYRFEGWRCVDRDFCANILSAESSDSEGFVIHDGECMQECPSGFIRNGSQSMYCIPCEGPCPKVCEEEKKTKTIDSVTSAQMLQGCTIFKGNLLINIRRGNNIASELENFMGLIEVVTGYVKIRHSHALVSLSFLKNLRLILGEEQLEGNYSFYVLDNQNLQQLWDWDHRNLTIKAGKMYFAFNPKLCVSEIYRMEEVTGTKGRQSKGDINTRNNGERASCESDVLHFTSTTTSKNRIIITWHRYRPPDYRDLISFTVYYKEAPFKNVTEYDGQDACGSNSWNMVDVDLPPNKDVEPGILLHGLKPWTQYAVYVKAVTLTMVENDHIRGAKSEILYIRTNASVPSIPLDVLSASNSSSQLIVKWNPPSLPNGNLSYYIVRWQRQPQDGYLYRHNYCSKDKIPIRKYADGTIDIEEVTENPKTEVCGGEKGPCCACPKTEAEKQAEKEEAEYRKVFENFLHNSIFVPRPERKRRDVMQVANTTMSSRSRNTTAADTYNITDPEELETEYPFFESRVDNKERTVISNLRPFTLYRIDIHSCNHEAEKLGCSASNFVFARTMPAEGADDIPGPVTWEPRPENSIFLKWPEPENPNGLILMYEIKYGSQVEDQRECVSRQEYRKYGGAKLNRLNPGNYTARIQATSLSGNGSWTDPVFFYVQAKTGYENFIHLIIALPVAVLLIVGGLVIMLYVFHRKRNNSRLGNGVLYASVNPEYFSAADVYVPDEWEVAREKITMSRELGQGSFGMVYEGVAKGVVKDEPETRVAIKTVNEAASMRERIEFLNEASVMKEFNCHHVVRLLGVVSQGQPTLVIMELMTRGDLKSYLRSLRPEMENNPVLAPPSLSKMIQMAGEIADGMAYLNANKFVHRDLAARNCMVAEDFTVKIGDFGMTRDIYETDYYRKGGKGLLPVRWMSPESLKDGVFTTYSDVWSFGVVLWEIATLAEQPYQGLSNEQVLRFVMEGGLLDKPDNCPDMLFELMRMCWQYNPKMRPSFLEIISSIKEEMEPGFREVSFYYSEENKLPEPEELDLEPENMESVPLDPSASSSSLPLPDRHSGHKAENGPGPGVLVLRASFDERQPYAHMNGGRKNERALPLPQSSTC

| SMILES | IC50 (COLO205 (colon)) | IC50 [1] | IC50 [2] | IC50 [3] |
| --- | --- | --- | --- | --- |
| CCCN1CCC(c2ccc(Nc3nccc(-c4c(-c5cccc(C(=O)Nc6c(F)cccc6F)c5)nc5ccccn45)n3)c(OC)c2)CC1 [Example 138, N-(2,6-difluorophenyl)-3-[3-(2-{[2-(methyloxy)-4-(1-propyl-4-piperidinyl)phenyl]amino}-4-pyrimidinyl)imidazo[1,2-a]pyridin-2-yl]benzamide] | 250 to 1000 nM | < 250 nM | < 100 nM | < 100 nM |
| COc1cc(N2CCN(CCS(C)(=O)=O)CC2)c(C)cc1Nc1nccc(-c2c(-c3cccc(C(=O)Nc4c(F)cccc4F)c3)nc3ccccn23)n1 [Example 148, N-(2,6-difluorophenyl)-3-(3-{2-[(5-methyl-2-(methyloxy)-4-{4-[2-(methylsulfonyl)ethyl]-1-piperazinyl}phenyl)amino]-4-pyrimidinyl}imidazo[1,2-a]pyridin-2-yl)benzamide] | < 250 nM | < 250 nM | < 100 nM | < 100 nM |
| COc1cc(N2CCN(CCS(C)(=O)=O)CC2)c(C)cc1Nc1nccc(-c2c(-c3ccc(OC)c(C(=O)Nc4c(F)cccc4F)c3)nc3ccccn23)n1 [Example 149, N-(2,6-difluorophenyl)-5-(3-{2-[(5-methyl-2-(methyloxy)-4-{4-[2-(methylsulfonyl)ethyl]-1-piperazinyl}phenyl)amino]-4-pyrimidinyl}imidazo[1,2-a]pyridin-2-yl)-2-(methyloxy)benzamide] | < 250 nM | < 250 nM | < 100 nM | < 100 nM |
| CCCN1CCN(c2ccc(Nc3nccc(-c4c(-c5ccc(OCC)c(C(=O)Nc6c(F)cccc6F)c5)nc5ccccn45)n3)c(OCC)c2)CC1 [Example 152, N-(2,6-difluorophenyl)-2-(ethyloxy)-5-[3-(2-{[2-(ethyloxy)-4-(4-propyl-1-piperazinyl)phenyl]amino}-4-pyrimidinyl)imidazo[1,2-a]pyridin-2-yl]benzamide] | 250 to 1000 nM | < 250 nM | < 100 nM | < 100 nM |

More lines, now with the values ahead:

| IC50 (COLO205 (colon)) | IC50 [1] | IC50 [2] | IC50 [3] | SMILES |
| --- | --- | --- | --- | --- |
| 250 to 1000 nM | < 250 nM | < 100 nM | < 100 nM | CCOc1cc(N2CCN(CCS(C)(=O)=O)CC2)ccc1Nc1nccc(-c2c(-c3ccc(OC)c(C(=O)Nc4c(F)cccc4F)c3)nc3ccccn23)n1 [Example 143, N-(2,6-difluorophenyl)-5-(3-{2-[(2-(ethyloxy)-4-{4-[2-(methylsulfonyl)ethyl)-1-piperazinyl}phenyl)amino]-4-pyrimidinyl}imidazo[1,2-a]pyridin-2-yl)-2-(methyloxy)benzamide] |
| < 250 nM | < 250 nM | < 100 nM | < 100 nM | CCOc1cc(N2CCN(CCS(C)(=O)=O)CC2)ccc1Nc1nccc(-c2c(-c3ccc(OCC)c(C(=O)Nc4c(F)cccc4F)c3)nc3ccccn23)n1 [Example 144, N-(2,6-difluorophenyl)-2-(ethyloxy)-5-(3-{2-[(2-(ethyloxy)-4-{4-[2-(methylsulfonyl)ethyl)-1-piperazinyl}phenyl)amino]-4-pyrimidinyl}imidazo[1,2-a]pyridin-2-yl)benzamide] |
| < 250 nM | < 250 nM | < 100 nM | < 100 nM | CCOc1ccc(-c2nc3ccccn3c2-c2ccnc(Nc3cc(C)c(N4CCN(CCS(C)(=O)=O)CC4)cc3OC)n2)cc1C(=O)Nc1c(F)cccc1F [Example 150, N-(2,6-difluorophenyl)-2-(ethyloxy)-5-(3-{2-[(5-methyl-2-(methyloxy)-4-{4-[2-(methylsulfonyl)ethyl]-1-piperazinyl}phenyl)amino]-4-pyrimidinyl}imidazo[1,2-a]pyridin-2-yl)benzamide] |
| 250 to 1000 nM | < 250 nM | < 100 nM | < 100 nM | CCCN1CCN(c2ccc(Nc3nccc(-c4c(-c5ccc(OC)c(C(=O)Nc6c(F)cccc6F)c5)nc5ccccn45)n3)c(OCC)c2)CC1 [Example 151, N-(2,6-difluorophenyl)-5-[3-(2-{[2-(ethyloxy)-4-[4-propyl-1-piperazinyl)phenyl]amino}-4-pyrimidinyl)imidazo[1,2-a]pyridin-2-yl]-2-(methyloxy)benzamide] |

— US20100216779A1 (GLAXOSMITHKLINE LLC, priority 2007, published 2010)
